Measured values taken from patent US5998648A, “Anticancer (IV) complexes for oral administration and a method of making the same” (Korea Institute of Science and Technology, priority 1997, dated 1999).

What was measured:
[1] = system: L1210 leukemia; test: Oral anticancer activity (survival time of L1210 leukemia-implanted BDF1 mice); format: in vivo, BDF1 mice; L1210 cells from DBA/2 mice; details: for Increase ratio in the survival time (T/C, %): Dose 150 mg/kg, daily for consecutive five days, L1210 implanted intraperitoneally
Experimental: The oral anticancer activity of the hexa-coordinate platinum(IV) complexes of the present invention was evaluated as follows. A group of eight 6-week old BDF1 mice was employed to test for each compound. 1×10^5 cells of L1210 leukemia in ascitic fluid from DBA/2 mice were implanted intraperitoneally in each mouse. The test solutions containing platinum(IV) complexes at different concentrations were orally administered daily for consecutive five days. The survival time of each group of the mice was recorded. The percent increase in the survival time as compared to the control group, T/C (%), was calculated as an indicator of the anticancer activity. The results are summarized in Table I. Drugs that have more than 125% of the T/C (%) values can be considered as efficient anticancer drugs. […] It is expected that the complex in Example 1 could be practically applicable since the acute toxicity was also low (LD50 =300 mg/kg)

[2] = Acute toxicity; format: in vivo

Compound	anticancer activity (in words) [1]	Increase ratio in the survival time (T/C, %) [1]	acute toxicity / toxicity (in words) ([2]; in vivo)	acute toxicity LD50 ([2]; species and route not given)
CCC(=O)[O][Pt]([O]C(=O)CC)([O]C(=O)CC)[O]C(=O)CC.NC1CCCCC1N [Example 1]	excellent anticancer activity	160.9%	low	300 mg/kg
CCCC(=O)[O][Pt]1([O]C(=O)CCC)([O]C(=O)CCC)([O]C(=O)CCC)[NH]C2CCCCC2[NH]1 (stereo not drawn) [Example 2]		139.1%		
[NH2 CH2 C(CH3)2 CH2 NH2 ]Pt(OOCC2 H5)4 [Example 6]		130.8%		
[OH][Pt]1([OH])([OH])([OH])[NH]C2CCCCC2[NH]1 (stereo not drawn) [compound 1, (DACH)Pt(OH)4, reference compound]		108.8%		
(DACH)PtCl2 (OAc)4 [compound 2, reference compound]		103.1%		
CCCC(=O)[O][Pt]1([O]C(=O)CCC)([O]C(=O)CCC)([O]C(=O)CCC)[NH]CC[NH]1 [Example 4, (NH2 CH2 CH2 NH2)Pt(OOCC3 H7)4]		115.4%		
